According to patent US20240199612A1, “IMIDAZOPYRIDINYL INHIBITORS OF PLASMA KALLIKREIN” (SHIRE HUMAN GENETIC THERAPIES, INC., priority 2021, published 2024):

Columns and labels:
plasma kallikrein = biological target: T1, plasma kallikrein (Homo sapiens, UniProt P03952); assay: Neat human plasma assay (contact pathway-activated plasma, FXIIa, PFR-AMC substrate); format: biochemical; details: sodium citrate human plasma, 78% final plasma, 10 nM human FXIIa, 100 μM PFR-AMC, room temperature
T1 construct: from tissue; host or cells: sodium citrate collected human plasma (78% final)
Procedure: Neat Human and Rat Plasma Assay
To analyze inhibition of plasma kallikrein in an ex vivo setting, the potency of compounds was measure in contact pathway-activated plasma assays. In a fluorogenic peptide substrate assay, test compounds dissolved in DMSO were added to sodium citrate collected human or rat plasma in a 96-well microplate. Alternatively, citrated plasma was collected from rats administered the compounds orally or by IV. 10 nM of human FXIIa (Enzyme Research Laboratories) diluted in PKa buffer (20 mM Tris-HCl, pH 7.5, 150 mM NaCl, 1 mM EDTA, 0.1% PEG-8000, and 0.1% Triton X-100) was added to the plasma, followed by the 100 μM of the profluorescent, synthetic plasma kallikrein substrate PFR-AMC (also diluted in PKa buffer). Final plasma concentration in the reaction was 78%. Fluorescence was immediately monitored by excitation/emission wavelengths of 360 nm/480 nm respectively over a period of 5 minutes in a microplate reader. The resulting linear increase in fluorescence emission (reflecting PKa proteolysis of PFR-AMC substrate) was fit to extract a proteolytic rate (fluorescent units over time), and this rate was subsequently plotted against compound inhibitor concentration. Resulting plots were fit to a standard 4-parameter IC50/IC90 equation to determine min/max values, IC50/90, and slope. All experimental steps were performed at room temperature.

[1] = biological target: human activated kallikrein enzyme (Homo sapiens, UniProt P03952); assay: Inhibition of human activated plasma kallikrein, fluorogenic peptide substrate (PFR-AMC) assay, 500 pM enzyme format; format: biochemical; details: format with 500 pM activated kallikrein, 300 uM PFR-AMC, 30 min preincubation, 10 min reaction, room temperature; read-out: Primary Dose Response Assay: Average EC50
Procedure: Inhibitory Activity of Exemplary Compounds against Plasma Kallikrein.
Compounds were evaluated for inhibition of the human activated kallikrein enzyme in two formats of an assay employing a fluorogenic peptide substrate. In one assay format, the concentrations of reagents were as follows: 20 mM Tris pH 7.5, 1 mM EDTA, 150 mM sodium chloride, 0.1% PEG-400, 0.1% Triton X-100, 500 pM activated kallikrein enzyme, 300 uM Pro-Phe-Arg-7-amido-4-methylcoumarin (PFR-AMC) substrate. Prior to reaction initiation with substrate, enzyme and inhibitors were preincubated for 30 min at room temperature. After initiation with substrate, reactions were incubated for 10 min at room temperature and fluorescence emission at 460 nm from 380 nm excitation measured with a microplate reader. In another assay format, the concentrations of reagents were as follows: 20 mM Tris pH 7.5, 1 mM EDTA, 150 mM sodium chloride, 0.1% PEG-400, 0.1% Triton X-100, 5 pM activated kallikrein enzyme, 300 uM PFR-AMC substrate. Prior to reaction initiation with substrate, enzyme and inhibitors were preincubated for 30 min at room temperature. After initiation with substrate, reactions were incubated for 18 hr at room temperature and fluorescence emission at 460 nm from 380 nm excitation measured with a microplate reader.

human activated kallikrein enzyme, sequence (P03952 391-638 limits assumed): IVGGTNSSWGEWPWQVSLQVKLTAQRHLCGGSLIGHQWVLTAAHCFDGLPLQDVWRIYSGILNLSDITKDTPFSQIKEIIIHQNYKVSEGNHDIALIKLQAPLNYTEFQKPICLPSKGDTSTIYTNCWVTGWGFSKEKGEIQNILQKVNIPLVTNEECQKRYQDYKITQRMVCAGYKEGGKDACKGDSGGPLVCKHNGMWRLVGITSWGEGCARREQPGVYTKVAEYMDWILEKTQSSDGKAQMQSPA
human activated kallikrein enzyme, sequence (P03952 20-390 partner limits assumed): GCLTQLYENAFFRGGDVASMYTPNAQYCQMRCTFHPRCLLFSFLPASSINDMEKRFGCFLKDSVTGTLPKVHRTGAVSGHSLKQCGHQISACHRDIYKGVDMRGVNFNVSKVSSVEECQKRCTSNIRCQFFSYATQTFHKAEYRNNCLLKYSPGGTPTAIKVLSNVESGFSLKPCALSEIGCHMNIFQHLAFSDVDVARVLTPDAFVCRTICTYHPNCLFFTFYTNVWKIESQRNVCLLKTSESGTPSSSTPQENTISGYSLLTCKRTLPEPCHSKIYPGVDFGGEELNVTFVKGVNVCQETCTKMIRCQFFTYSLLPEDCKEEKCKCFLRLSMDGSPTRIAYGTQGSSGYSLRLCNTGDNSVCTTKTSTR
T1 sequence (P03952 391-638 limits assumed): as the sequence (P03952 391-638 limits assumed) above
T1 sequence (P03952 20-390 partner limits assumed): as the sequence (P03952 20-390 partner limits assumed) above

O=C(NCc1cc(Cl)ccc1-n1cnnn1)Nc1cc(NCc2cn3cc(C4CC4)ccc3n2)ccn1 [Compound I-10, 1-(5-chloro-2-(1H-tetrazol-1-yl)benzyl)-3-(4-(((6-cyclopropylimidazo[1,2-a]pyridin-2-yl)methyl)amino)pyridin-2-yl)urea]
IC90 (plasma kallikrein): 2500 to 7500 nM
EC50 [1]: < 5 nM

O=C(Nc1cc(OCc2cn3cc(C4CC4)ccc3n2)ccn1)OCc1cc(Cl)ccc1-n1cnnn1 [Compound I-12, 5-chloro-2-(1H-tetrazol-1-yl)benzyl (4-((6-cyclopropylimidazo[1,2-a]pyridin-2-yl)methoxy)pyridin-2-yl)carbamate]
IC90 (plasma kallikrein): 7500 to 15000 nM
EC50 [1]: < 5 nM

O=C(Nc1cc(N2C[C@@H](O)C[C@@H]2c2cn3cc(C4CC4)ccc3n2)ncn1)OCc1cc(Cl)ccn1 [Compound I-28, (4-chloropyridin-2-yl)methyl (6-((2R,4S)-2-(6-cyclopropylimidazo[1,2-a]pyridin-2-yl)-4-hydroxypyrrolidin-1-yl)pyrimidin-4-yl)carbamate]
IC90 (plasma kallikrein): ≤ 2500 nM
EC50 [1]: < 5 nM

O=C(Nc1cc(NCc2cn3cc(C4CC4)ccc3n2)ccn1)OCc1cc(Cl)ccc1-n1cnnn1 [Compound I-11, 5-chloro-2-(1H-tetrazol-1-yl)benzyl (4-(((6-cyclopropylimidazo[1,2-a]pyridin-2-yl)methyl)amino)pyridin-2-yl)carbamate]
IC90 (plasma kallikrein): 2500 to 7500 nM
EC50 [1]: < 5 nM

O=C(Nc1cc(NCc2cn3cc(C4CC4)ccc3n2)ccn1)OCc1cccc(Cl)c1 [Compound I-13, 3-chlorobenzyl (4-(((6-cyclopropylimidazo[1,2-a]pyridin-2-yl)methyl)amino)pyridin-2-yl)carbamate]
IC90 (plasma kallikrein): 7500 to 15000 nM
EC50 [1]: < 5 nM

CC(OC(=O)Nc1cc(NCc2cn3cc(C4CC4)ccc3n2)ccn1)c1cc(Cl)ccc1-n1cnnn1 (stereo not drawn) [Compound I-21, 1-(5-chloro-2-(1H-tetrazol-1-yl)phenyl)ethyl (4-(((6-cyclopropylimidazo[1,2-a]pyridin-2-yl)methyl)amino)pyridin-2-yl)carbamate]
IC90 (plasma kallikrein): 2500 to 7500 nM
EC50 [1]: < 5 nM
